Test [1] relates to rat retinal ganglion cells (RGCs) and Nkx2.1-GFP+ sorted OPCs. The experiment in a line: Co-culture and myelination assay with rat RGC and hESC-derived OPCs. The test is classed as cell-based, rat; human. From the text:
Retinae were dissected from P6 Sprague-Dawley rat pups (AEC #1121/2011/M). RGCs were purified according to the published immunopanning protocol (Deliyanti and Wilkinson-Berka, 2015; Watkins et al., 2008). Details of the RGC preparation are described in Supplemental Experimental Procedure. The RGC growth medium was changed every third day and cultures were maintained for 9 days. Pre-OLs from Nkx2.1-GFP+ cells at stage VI day 10, were FACS sorted according to O4 antibody labeling. O4+ sorted cells were then co-cultured with RGCs at a density of 20,000/well under 3 different conditions: T3 with 0.01% ethanol, 10 ng/mL DITPA, and 40 ng/mL T3 with DITPA in myelination medium (see Supplemental Experimental Procedure). The medium was changed every 3 days and all co-cultures were fixed after 7 days, followed by immunocytochemistry. Cells were stained with a monoclonal rat anti-mCherry (Life Technologies, M11217, 1:1,000); monoclonal mouse anti-NF-200 (Sigma-Aldrich, N0142, 1:200); and polyclonal rabbit anti-MBP (Millipore, AB980, 1:200). Followed by incubation of appropriate Alexa Fluor-labeled secondary antibodies (Life technologies).
In RGC-OPC co-cultures, myelin segments were counted manually. 10 fields (×20 objective) were randomly selected and captured from each coverslip with a confocal microscope (Nikon A1 inverted). For representative images, 10 z-stack images (0.25 μm intervals) were captured, analysed and processed for 3D volume rendering by Imaris version 7.6.4. OLs were scored according to their morphology and defined as either “resting” (processes not touching axons); “contacting” (processes touching axons but not wrapping); and “ensheathing” (processes aligned with and wrapping axons). A myelination index (i.e. axons myelinated) was calculated by: the number of MBP+ membrane, ensheathing the NF200+ axons/the total number of NF200+ axons.
The dissected retinae were digested using papain dissociation system according to the manufacturer's protocol (Worthington). […]

Test [2] deals with Pre-OLs from Nkx2.1-GFP+ sorted cultures at stage VI, day 21. The experiment in a line: Pharmacological blockade of MCT8 with Bosutinib, DAPI+ dead cells by flow cytometry. It counts as cell-based, human. Conditions: co-administration of 10 ng/mL DITPA with Bosutinib, 48 hours. The procedure: Pre-OLs from Nkx2.1-GFP+ sorted cultures at stage VI, day 21 were treated with the pharmacological inhibitor of MCT8, bosutinib (LC Laboratories, B-1788, reconstituted in dimethyl sulfoxide, [DMSO]) at different concentrations (1 ng/mL, 10 ng/mL and 100 ng/mL) with co-administration of 10 ng/mL DITPA. An MTT assay and flow cytometry were then performed on the cells stained for DAPI after 48 hours of treatment, to analyze DAPI+ dead cells.

In test [3] the test system is Nkx2.1-GFP sorted cells transduced with slc16a2 shRNA lentivirus. As to the kind of experiment: Apoptosis assay (cleaved caspase-3) after stable knockdown of slc16a2. It counts as cell-based. Conditions: DITPA from 3 days post-LV-transduction. Here is the method:
Nkx2.1-GFP sorted cells at the end of stage VI or V were transduced with MOI of 10 in appropriate stage-specific medium containing polybrene (5 μg/mL, Sigma-Aldrich). Efficiency of transduction was validated by analyzing mCherry+ cells by flow cytometry and efficiency of knockdown was validated by analyzing the slc16a2 transcript level by qRT-PCR 72 hours post-transduction. An apoptosis assay was performed on cells either, treated with or without DITPA for 2 days from 72 hours post-transduction, then fixed. Cells were stained with monoclonal rat anti-mCherry (M11217, Life Technologies, 1:1,000), polyclonal rabbit anti-cleaved caspase-3 (9661, Cell Signaling Technology, 1:400) and DAPI (Life Technologies) then analyzed by confocal microscopy (Nikon A1 Inverted using a ×20 water objective lens). Apopotic OLs were defined as those mCherry-positive cells with cleaved caspase-3+ nuclei that were also condensed and fragmented as assessed by DAPI. The data were plotted as the number of cleaved caspase-3/mCherry+ cells divided by total number of mCherry+ cells.

In test [4] the test system is rat RGCs and slc16a2 down-regulated OLs from Nkx2.1-GFP+ sorted cells. As to the kind of experiment: Co-culture myelination assay with slc16a2 down-regulated OLs. It counts as cell-based, rat; human. Conditions: slc16a2 down-regulated OLs co-cultured with rat RGCs for 7 days. From the text:
Retinae were dissected from P6 Sprague-Dawley rat pups (AEC #1121/2011/M). RGCs were purified according to the published immunopanning protocol (Deliyanti and Wilkinson-Berka, 2015; Watkins et al., 2008). Details of the RGC preparation are described in Supplemental Experimental Procedure. The RGC growth medium was changed every third day and cultures were maintained for 9 days. Pre-OLs from Nkx2.1-GFP+ cells at stage VI day 10, were FACS sorted according to O4 antibody labeling. O4+ sorted cells were then co-cultured with RGCs at a density of 20,000/well under 3 different conditions: T3 with 0.01% ethanol, 10 ng/mL DITPA, and 40 ng/mL T3 with DITPA in myelination medium (see Supplemental Experimental Procedure). […]
For quantification of myelination in vitro following knockdown of slc16a2, at least nine fields (×20 objective) were randomly selected and captured from each coverslip with a confocal microscope (Nikon A1 inverted). A myelination index (%) by mCherry+ cells (i.e. axons myelinated by mCherry+ cells) was calculated by: the number of mCherry+/MBP+ membrane, ensheathing the NF200+ axons/the total number of NF200+ axons. Furthermore, the viable ensheathing mCherry+/MBP+ OLs and mature mCherry+ OLs according to their morphology with multiple processes and membranous sheaths were counted and their % calculated.

A further test concerns AHDS patients. Conditions: cited from earlier work.

The values that follow come from patent US10640748B2, “Oligodendroglial cell culturing methods and in methods for treating neurodegenerative disorders by using thyroid hormones or analogues” (NeuOrphan Pty Ltd, priority 2014, dated 2020).

Each structure is given as a SMILES string. “Also recorded” adds a separate entry of the source.

With `O=C(O)CCc1cc(I)c(Oc2ccc(O)cc2)c(I)c1` [DITPA, 3,5-Diiodothyropropionic acid], in test [1] (7 days co-culture, 10 ng/mL DITPA, compared with T3 alone), the “percentage of myelination (number of myelinated axons/total number of axons)” value is recorded as “significantly enhanced”. Further, in test [1] (7 days co-culture, 10 ng/mL DITPA, versus T3 alone), the “contacting or ensheathing MBP+ OLs” value is listed as “more”. In test [1] (FIG. 6), the “myelination of rat retinal ganglion cells” value is reported as “Depicts an experiment which shows that DITPA promotes the myelination of rat”. For the same molecule, the “cell death (DAPI+ dead cells) under Bosutinib MCT8 blockade” value in test [2] is reported as “significant reduction in cell death; also recorded: DITPA treatment of differentiating OPCs overcomes the cell death initiated by the”. In addition, in test [3], the “cell death / apoptosis mediated by slc16a2 knock-down” value is given as “significantly reduced cell death; also recorded: Depicts an experiment which shows that DITPA rescues oligodendrocyte death”. The “mCherry+/MBP+ myelinating OLs and mCherry+/MBP+ myelin segments” value in test [4] is recorded as “found”. In addition, in the test with AHDS patients, the hypermetabolism result is “reduce” and the peripheral hyperthyroidism entry is “normalize”.
